Consider one compound from ChEMBL document CHEMBL4325844, “Development of 2-amino-4-phenylthiazole analogues to disrupt myeloid differentiation factor 88 and prevent inflammatory responses in acute lung injury” (Eur J Med Chem, 2019).

The target in test [1] is T1, Myeloid differentiation primary response protein MyD88 (Homo sapiens, UniProt Q99836). The experiment in a line: Inhibition of LPS-induced HA-tagged MyD88 (unknown origin) interaction with FLAG-tagged MyD88 (unknown origin) expressed in HEK293 cells at 20 uM after 48 hrs by co-immunoprecipitation method. The test is classed as cell-based.
T1 sequence (Q99836 whole entry): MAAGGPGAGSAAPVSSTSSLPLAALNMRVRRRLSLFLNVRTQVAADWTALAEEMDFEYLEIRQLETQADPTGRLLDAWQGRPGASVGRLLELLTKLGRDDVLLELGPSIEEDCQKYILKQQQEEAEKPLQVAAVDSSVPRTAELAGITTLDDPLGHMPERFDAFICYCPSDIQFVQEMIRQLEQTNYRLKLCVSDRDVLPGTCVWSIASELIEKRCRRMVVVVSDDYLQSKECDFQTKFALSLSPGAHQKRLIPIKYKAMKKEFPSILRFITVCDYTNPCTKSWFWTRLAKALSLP
Test [2] relates to Peritoneal macrophage. The experiment in a line: Antiinflammatory activity in ICR mouse primary peritoneal macrophages assessed as inhibition of LPS-induced IL-6 production at 20 uM preincubated for 60 mins followed by LPS stimulation and measured after 24 hrs by ELISA relative to control. It is filed as functional. (In general: ELISA stands for enzyme-linked immunosorbent assay.)

In test [3] the test system is Mus musculus. The test is described as follows: Antiinflammatory activity in LPS-induced C57/BL6 mouse model of acute lung injury assessed as reduction in thicken alveolar septa at 10 mg/kg, ip pretreated for 30 mins followed by LPS challenge measured after 6 hrs by hematoxylin and eosin staining based microscopic analysis. The test is classed as functional, organism-based.

Test [4] addresses T1, Myeloid differentiation primary response protein MyD88. The experiment in a line: Binding affinity to recombinant human MyD88 TIR domain (157 to 296 residues) expressed in Escherichia coli BL21(DE3) by surface plasmon resonance analysis. (In general: Surface plasmon resonance follows binding to a sensor surface in real time, without labels.)
Test [5] concerns Peritoneal macrophage. The experiment in a line: Antiinflammatory activity in ICR mouse primary peritoneal macrophages assessed as inhibition of LPS-induced TNFalpha production preincubated for 2 hrs followed by LPS stimulation and measured after 22 hrs by ELISA. It is filed as functional, cell-based.
The test system of test [6] is Mus musculus. The test is described as follows: Antiinflammatory activity in LPS-induced C57/BL6 mouse model of acute lung injury assessed as reduction in IL6 level in serum at 10 mg/kg, ip pretreated for 30 mins followed by LPS challenge measured after 6 hrs by ELISA. The test is classed as functional, organism-based.
Test [7] has as its system Mus musculus. The test is described as follows: Antiinflammatory activity in LPS-induced C57/BL6 mouse model of acute lung injury assessed as reduction in inflammatory infiltration at 10 mg/kg, ip pretreated for 30 mins followed by LPS challenge measured after 6 hrs by hematoxylin and eosin staining based microscopic analysis. It is filed as functional, organism-based.

The subject of test [8] is Mus musculus. The experiment in a line: Antiinflammatory activity in LPS-induced C57/BL6 mouse model of acute lung injury assessed as reduction in TNFalpha level in BALF at 10 mg/kg, ip pretreated for 30 mins followed by LPS challenge measured after 6 hrs by ELISA. The test is classed as functional, organism-based.
Test [9] deals with Peritoneal macrophage. The test is described as follows: Antiinflammatory activity in ICR mouse primary peritoneal macrophages assessed as inhibition of LPS-induced TNFalpha production at 20 uM preincubated for 60 mins followed by LPS stimulation and measured after 24 hrs by ELISA relative to control. The test is classed as functional.

pIC50, pKd: −log10 of the molar value. Activity calls are given as the source filed them. The rule behind the calls is not given here.

One may read the inhibition as how much of the control response was suppressed. For orientation: pKd means the Kd on a negative log10 scale, so that one unit is a factor of ten. As a reminder, the pIC50 is the negative decadic logarithm of the IC50, by convention in mol/L.

As to `COc1cc(-c2csc(NC(=O)CCN3CCN(Cc4cccc([N+](=O)[O-])c4)CC3)n2)ccc1O`, the inhibition entry in test [1] was “Active”. Also, the inhibition at 20 µM in the test with Peritoneal macrophage [2] turned out to be 95%. In addition, the outcome with Mus musculus [3] was Active. In [4], the Activity entry was “Dose-dependent effect”, the Ka worked out at 4830 M⁻¹ s⁻¹, the pKd is 4.46 and the Kdiss is 0.167 s⁻¹. Also, in the test on Peritoneal macrophage [5], the negative logarithm of the IC50 (pIC50) is 6.05 and the inhibition entry is “Dose-dependent effect”. Besides, the outcome in the test with Mus musculus [6] was Active. In addition, the outcome with Mus musculus [7] was Active. Moreover, in the test on Mus musculus [8], the result was Active. In addition, the inhibition at 20 µM in the test with Peritoneal macrophage [9] is 90.4%.
